# In patent US20260327250A1, “3-ETHYLAMINO-INDOLE DIMERS AS SEROTONERGIC AGENTS USEFUL FOR THE TREATMENT OF DISORDERS RELATED THERETO” (MINDSET PHARMA INC., priority 2022, published 2026):
# “Also recorded” adds a separate entry of the source. Structures can show the parent of a compound that is named as a salt. Where two headings read alike, the source gives them in different places.
# What was measured:
# [1] = target: T1, human 5-hydroxytryptamine receptor 2A (5-HT2A) (Homo sapiens, UniProt P28223); assay: Human 5-HT2A functional FLIPR assay (agonist mode); type: cell-based; conditions: for RFU@10 μM: footnote: Curve fitting with activation (%) @ 10 mM with RFU
# T1 construct: expressed in transfected cells; host or cells: HTR2A&Ga15-HEK293
# T1 sequence (P28223 whole entry): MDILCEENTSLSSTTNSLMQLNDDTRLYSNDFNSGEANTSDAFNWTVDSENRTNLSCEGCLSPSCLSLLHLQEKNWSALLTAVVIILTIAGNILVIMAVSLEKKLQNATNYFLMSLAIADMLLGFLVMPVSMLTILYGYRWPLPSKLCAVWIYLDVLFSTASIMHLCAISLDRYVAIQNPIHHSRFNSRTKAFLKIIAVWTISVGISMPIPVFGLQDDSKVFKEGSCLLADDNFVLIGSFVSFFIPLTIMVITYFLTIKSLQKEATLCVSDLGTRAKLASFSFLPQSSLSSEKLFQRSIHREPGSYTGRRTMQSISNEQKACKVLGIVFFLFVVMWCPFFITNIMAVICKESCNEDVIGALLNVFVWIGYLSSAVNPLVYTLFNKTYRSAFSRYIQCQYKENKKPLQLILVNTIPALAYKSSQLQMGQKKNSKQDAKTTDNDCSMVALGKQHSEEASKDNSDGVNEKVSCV
# Procedure: To assess the potential excitatory effects of compounds targeting on human 5-hydroxytryptamine receptor 2A (5-HT2A) under agonist mode
# HTR2A&Ga15-HEK293 cells were cultured in DMEM medium containing 10% dialyzed FBS and 1× penicillin-streptomycin, 100 μg/mL Hygromycin B and 300 μg/mL G418. The cells were passaged about three times a week, maintained between ~30% to ~90% confluence.
# • 1. The cell culture medium (DMEM medium containing 10% dialyzed FBS and 1× penicillin-streptomycin, 100 μg/mL Hygromycin B and 300 μg/mL G418), TrypLE™ Express and DPBS was warmed to R. T. in advance. • 2. For induction, 1 μg/ml tetracycline (final concentration) was added to cell culture medium and incubated for 48 hours prior to seeding cells into plate at 37° C., 5% (v/v) CO2. The cell culture medium was removed from flask. Washed cells with DPBS. • 3. 2 mL TrypLE™ Express was added to the flask, mixed well by gentle shaking and cells incubated at 37° C. for a few minutes. • 4. The cells morphological change was checked under microscope, and the digestion stopped by adding 4 mL cell culture medium to the flask when most of cells turned to round. • 5. The cell suspension was transferred into a 15 mL centrifuge tube, and then centrifuged at 1,200 rpm for 5 minutes. • 6. The supernatant was removed. The cell pellet was resuspended with 2 mL cell culture medium. • 7. The cell density was counted using cell counter. Only cells with >85% viability were used for the assay. • 8. Cells were diluted to 6.67×10^5/mL with cell culture medium. • 9. 30 μL/well cell suspensions was added into a 384-well cell plate (The cell density was 20,000 cells/well). • 10. The cell plate was incubated overnight at 37° C., 5% (v/v) CO2. 2.3 Cell handling • 1. On the day of experiments, culture medium was removed from the cell plate. • 12. 10 μL of assay buffer (20 mM HEPES, in 1× HBSS, pH 7.4) was added to each well of the cell plate. • 3. 2×dye solution was prepared following the manual of the FLIPR® Calcium 6 Assay Kit: • i. The dye was diluted with assay buffer. • ii. Probenecid was added to the final concentration of 5 mM. • iii. Vortexed vigorously for 1-2 minutes. • 4. 10 μL of 2× dye solution was added to each well of the cell plate • 5. The cell plate was placed on plate shaker, and was shaken at 600 rpm for 2 minutes. • 6. The plate was incubated at 37° C. for 2 hours followed by an additional 15-minute incubation at 25° C. 2.4 Prepare 3×compound • 1, Serotonin HCl was prepared to the concentration of 10 mM with DMSO. • 2. The test compounds were prepared to the concentration of 10 mM with DMSO. • 3. The compounds were added to a 384-well compound source plate. • 4. 3-folds serial dilutions were performed with DMSO. • 5. 90 nL/well of serial diluted compounds were transferred from source plate to a 384-well compound plate by using an Echo. • 6. 30 μL/well of assay buffer (20 mM HEPES in 1× HBSS, pH 7.4) were added to the compound plate. • 7. Mixed on the plate-on-plate shaker for 2 minutes.
# • 1, After the cells were incubated with dye solution, the cell plate, compound plate containing 3×compounds and FLIPR tips were placed into FLIPR. • 2, 10 μL of 3×compounds were transferred from the compound plate to the cell plate by FLIPR. • 3, The plate was read for 160 sec with 1 sec interval to obtain the data of agonist mode.
# • 1, The normalized fluorescence reading (RFU) was calculated as shown below, wherein Fmax and Fmin stand for maximum and minimum of calcium signal during defined time window:
# [formula] • 2. EC50 was calculated by fitting RFU against log of compound concentrations with Hill equation using XLfit.
# [2] = Human, rat and mouse liver microsomes stability (overall conclusion); type: in vitro ADME; conditions: 60-minute time period
# Procedure: This study was performed in duplicate.
# All calculations were carried out using Microsoft Excel.
# All calculations were carried out using Microsoft Excel. Peak areas were determined from extracted ion chromatograms.
# in vitro [3] = conditions: rat, microsomes
# Procedure: The concentrations of parent compounds in reaction systems were evaluated by LC-MS/MS for estimating the stability in pooled human, male rat and male mouse liver microsomes. The in vitro intrinsic clearances of test compounds were determined as well. Protocol
# A master solution in the “Incubation Plate” containing phosphate buffer, ultra-pure H2O, MgCl2 solution and liver microsomes was made according to Table 6. The mixture was pre-warmed at 37° C. water bath for 5 minutes.
# The reaction was started with the addition of 4 μL of 200 μM exemplary test compounds of the application or control compounds to each master solution to get the final concentration of 2 μM. This study was performed in duplicate.
# Aliquots of 50 μL were taken from the reaction solution at 0, 15, 30, 45 and 60 minutes. The reaction solutions were stopped by the addition of 4 volumes of cold methanol with IS (100 nM alprazolam, 200 nM imipramine, 200 nM labetalol and 2 μM ketoprofen). Samples were centrifuged at 3,220 g for 40 minutes. Aliquot of 90 μL of the supernatant was mixed with 90 μL of ultra-pure H2O and then was used for LC-MS/MS analysis.
# All calculations were carried out using Microsoft Excel. Peak area ratios of test compound to internal standard (listed in the below table) were determined from extracted ion chromatograms.
# All calculations were carried out using Microsoft Excel. Peak areas were determined from extracted ion chromatograms. The slope value, k, was determined by linear regression of the natural logarithm of the remaining percentage of the parent drug vs. incubation time curve.
# The in vitro half-life (in vitro t½) was determined from the slope value:
# Conversion of the in vitro t½ (min) into the in vitro intrinsic clearance (in vitro CLint, in μL/min/mg proteins) was done using the following equation (mean of duplicate determinations):
# in vitro [4] = conditions: dog, plasma
# Procedure: (§1) The stock solution of test compound was prepared in DMSO and diluted at the final concentration of 200 μM.
# (§2) • a. 2.5 μL of 200 μM or 1 mM test compound or control compound solution was spiked to 497.5 μL plasma to reach a final concentration of 1 μM or 5 μM. The final concentration of organic solvents was 0.5%. The assay was performed in duplicated. • b. The reaction samples were incubated at 37° C. at approximately 60 rpm in a water bath. • c. Aliquots of 50 μL were taken from the reaction samples at 0, 30, 60, 120, 180 and 240 minutes. The reaction was stopped by the addition of 7 volumes of cold acetonitrile containing internal standards (IS: 100 nM alprazolam, 200 nM imipramine, 200 nM labetalol and 2 μM ketoprofen). • d. All samples were vortexed for 2 minutes, followed by centrifugation at 3,220 g for 30 minutes to precipitate proteins. 100 μL of the supernatant was transferred to a new plate. The supernatant was diluted with ultrapure water according to the LC-MS signal response and peak shape.
# (§3) Samples were Analyzed by LC-MS/MS. • LC system: Shimadzu • MS analysis: Triple Quad™ 6500+ from AB Inc (Canada) with an ESI interface • Column temperature: 40° C. • Column: Xselect® Hss T3 2.5μ (2.1×30 mm) coupled with preguard column • Mobile phase: 0.1% formic acid in water (A) and 0.1% formic acid in acetonitrile (B)
# (§4) All calculations were carried out using Microsoft Excel. Remaining percentages of parent compounds at each time point were estimated by determining the peak area ratios from extracted ion chromatograms.
# in vitro [5] = conditions: human
# Procedure: The Caco-2 cell culture medium was prepared consisting of Dulbecco's Modified Eagle's Medium (DMEM) with high glucose and L-glutamine supplemented with 10% FBS, 1× penicillin-streptomycin mixture and 1× non-essential amino acids (NEAA). • 2. The 50 μL of culture medium was added to each well of the Transwell insert. Transwell insert was removed from reservoir and 25 mL of culture medium was added. • 3. Incubated at 37° C., 5% CO2 for 1 hour. Plates were ready for cell seeding. • 4. The cells were cultivated in T-75 flasks in a cell culture incubator set at 37° C., 5% CO2, 95% relative humidity. The cells were allowed to reach 80-90% confluence before detaching and splitting. • 5. The cultivated cells were rinsed in T-75 flasks with 5 mL PBS. Aspirated off, 1.5 mL trypsin/EDTA was added, and incubated at 37° C. for approximately 5 to 10 minutes or until the cells detach and float. Trypsin/EDTA was inactivated by adding excess serum containing medium. • 6. The cell suspension was moved to a conical tube and cells were pelleted by centrifugation at 120×g for 10 minutes. • 7. The cells were resuspended in seeding medium at a density of 6.86×10^5 cells/mL. This cell concentration can be used to seed 2.40×10^5 cells/cm^2. […] Seeding and Feeding of Caco-2 Cells in Transwell Plates • 1. 50 μL of above cell suspension was added to each well of a previously prepared Transwell plate. • 2. The plate was incubated for 14-18 days. The medium was replaced every other day, beginning no sooner than 48 hours after initial plating. • 3. The procedure for medium changes was as follows. The plate was removed from incubator and placed in hood. The medium was aspirated from reservoir and each Transwell insert. 75 μL of culture medium was added to each well of Transwell inserts and 25 mL of culture medium was added to reservoir tray. The plate was returned to incubator.
# When the 14-day Caco-2 cultured cells have reached confluence and are differentiated, they were ready to be used for transport studies. • 2. The medium was removed from reservoir and Transwell inserts. • 3. 75 μL of pre-warmed culture medium was added to each transwell insert and 25 mL of reservoir tray. • 4. The electrical resistance across the monolayer was measured using automated tissue resistance measuring system (World Precision Instruments, Sarasota, FL). • 5. The electrical resistance was recorded for each well. • 6. Once all wells were measured, the plate was returned to incubator. • 7. TEER of each well was calculated by the equation below. The TEER value of each well should be greater than 230 ohms-cm^2. TEER measurement (ohms)×Area of membrane (cm^2)=TEER value (ohm-cm^2)
# The Caco-2 plate was removed from the incubator. Next, the monolayer was washed, and the volume exchanged two times using pre-warmed HBSS (10 mM HEPES, pH 7.4). Then the plate was incubated for 30 minutes at 37° C. • 1 mM stock solutions of control compounds and test compound(s) were prepared in DMSO and diluted with HBSS (10 mM HEPES, pH 7.4) to reach the final concentration of 5 μM. The final concentration of DMSO in the incubation system was 0.5%. Digoxin, prazosin and propranolol were used as control compounds in this assay. • 3. HBSS (10 mM HEPES, pH 7.4) was removed after 30 minutes pre-incubation. • 4. The rate of drug transport was incubated in the apical to basolateral direction. 75 μL of the control compounds and test compound was added to the Transwell insert (apical compartment). The wells were filled in the receiver plate (basolateral compartment) with 235 μL of HBSS (10 mM HEPES, pH 7.4). • 5. The rate of drug transport was determined in the basolateral to apical direction. 235 μL of the control compounds and test compound(s) was added to the receiver plate wells (basolateral compartment). The Transwell insert (apical compartment) was filled with 75 μL of HBSS (10 mM HEPES, pH 7.4). • 6. […] Incubated at 37° C. for 2 hours. • 8.
# Rat plasma stability = conditions: for Remaining Percentage: rat plasma, 0 min
# Procedure: as §1, §2, §3, §4
# Dog plasma stability = conditions: for Remaining Percentage: dog plasma, 0 min
# Procedure: as §1, §2, §3, §4
# Human plasma stability = conditions: for Remaining Percentage: human plasma, 0 min
# Procedure: as §1, §2, §3, §4
# Mouse plasma stability = conditions: for Remaining Percentage: mouse plasma, 0 min
# Procedure: as §1, §2, §3, §4
# [6] = target: 5-HT2A and 5-HT2C receptors; conditions: compared with LSD; cited from earlier work
# 5-HT2A = conditions: rats, 5-HT2A or 5-HT1A antagonists; cited from earlier work
# [7] = test system: brain's default mode network; conditions: humans, intravenous; cited from earlier work
# frontal cortex = conditions: healthy participants, 15 or 20 mg orally; cited from earlier work
# [8] = patients; psilocybin-assisted psychotherapy or supportive setting; cited from earlier work
# [9] = humans, controlled setting; cited from earlier work
# [10] = FLIPR, agonist mode, ND = Not detected, read-out: h5-HT2A, EC50
compound,measurement,setting,value
CC(C)N(CCc1c[nH]c2cccc(O)c12)C(C)C [Compound 7],RFU@10 μM,[1],6358 RFU
same,EC50,[1]; [10],81.4 nM
"CN(C)CCc1c[nH]c2cccc(OC(=O)CCCC(=O)Oc3cccc4[nH]cc(CCN(C)C)c34)c12 [Compound I-24, Bis(3-(2-(dimethylamino)ethyl)-1H-indol-4-yl) glutarate]",RFU@10 μM,[1],3061 RFU
same,EC50,[1]; [10],24.9 nM
same,metabolic stability (conclusion),[2],rapidly metabolized
same,half-life at 2 µM,in vitro [3],< 4.51 min
same,microsomal CLint at 2 µM,in vitro [3],> 307 µL/min/mg
same,"remaining at 1 h, 2 µM",in vitro [3],0%
same,half-life,in vitro [4],19 min
same,remaining at 0.5 h,in vitro [4],32.9%
same,remaining at 1 h,in vitro [4],11.2%
same,remaining at 2 h,in vitro [4],0%
same,remaining at 3 h,in vitro [4],0%
same,remaining at 4 h,in vitro [4],0%
same,"Papp A→B at 2 h, 5 µM","in vitro [5]; Caco-2, pH 7.4",0.27 ×10⁻⁶ cm/s
same,"Papp B→A at 2 h, 5 µM","in vitro [5]; Caco-2, pH 7.4",2.47 ×10⁻⁶ cm/s
same,"efflux ratio at 2 h, 5 µM","in vitro [5]; Caco-2, pH 7.4",9.16
same,"recovery at 2 h, 5 µM","in vitro [5]; Caco-2, pH 7.4, Percentage recovery A→B, apical to basolateral",112%
same,"recovery at 2 h, 5 µM","in vitro [5]; Caco-2, pH 7.4, Percentage recovery B→A, basolateral to apical",105%
same,Remaining Percentage,Rat plasma stability,100.00%
same,Remaining Percentage,Dog plasma stability,100.00%
same,Remaining Percentage,Human plasma stability,100.00%
same,Remaining Percentage,Mouse plasma stability,100.00%
"CC(C)N(CCc1c[nH]c2cccc(OC(=O)CCCC(=O)Oc3cccc4[nH]cc(CCN(C(C)C)C(C)C)c34)c12)C(C)C [Compound I-37, Bis(3-(2-(diisopropylamino)ethyl)-1H-indol-4-yl) glutarate dihydrochloride]",EC50,[1],158 nM
same,RFU@10 μM,[1],6768 RFU
same,metabolic stability (conclusion),[2],rapidly metabolized
same,half-life at 2 µM,in vitro [3],< 4.51 min
same,microsomal CLint at 2 µM,in vitro [3],> 307 µL/min/mg
same,"remaining at 1 h, 2 µM",in vitro [3],0%
same,Remaining Percentage,Rat plasma stability,100.00%
same,remaining at 0.5 h,"Rat plasma stability; rat, plasma",0%
same,remaining at 1 h,"Rat plasma stability; rat, plasma",0%
same,remaining at 2 h,"Rat plasma stability; rat, plasma",0%
same,remaining at 3 h,"Rat plasma stability; rat, plasma",0%
same,remaining at 4 h,"Rat plasma stability; rat, plasma",0%
same,Remaining Percentage,Dog plasma stability,100.00%
same,half-life,"Dog plasma stability; dog, plasma",115 min
same,remaining at 0.5 h,"Dog plasma stability; dog, plasma",82.6%
same,remaining at 1 h,"Dog plasma stability; dog, plasma",70.5%
same,remaining at 2 h,"Dog plasma stability; dog, plasma",50.5%
same,remaining at 3 h,"Dog plasma stability; dog, plasma",31.6%
same,remaining at 4 h,"Dog plasma stability; dog, plasma",24.2%
same,Remaining Percentage,Human plasma stability,100.00%
same,remaining at 0.5 h,"Human plasma stability; human, plasma",0%
same,remaining at 1 h,"Human plasma stability; human, plasma",0%
same,remaining at 2 h,"Human plasma stability; human, plasma",0%
same,remaining at 3 h,"Human plasma stability; human, plasma",0%
same,remaining at 4 h,"Human plasma stability; human, plasma",0%
same,Remaining Percentage,Mouse plasma stability,100.00%
same,remaining at 0.5 h,"Mouse plasma stability; mouse, plasma",0%
same,remaining at 1 h,"Mouse plasma stability; mouse, plasma",0%
same,remaining at 2 h,"Mouse plasma stability; mouse, plasma",0%
same,remaining at 3 h,"Mouse plasma stability; mouse, plasma",0%
same,remaining at 4 h,"Mouse plasma stability; mouse, plasma",0%
"CN(C)CCc1c[nH]c2cccc(O)c12 [Psilocin, 4-hydroxy-N,N-dimethyltryptamine, reference compound]",RFU@10 μM,[1],308 RFU
same,"remaining at 1 h, 2 µM",in vitro [3],62.7%
same,"Papp A→B at 2 h, 5 µM","in vitro [5]; Caco-2, pH 7.4",24.6 ×10⁻⁶ cm/s
same,"Papp B→A at 2 h, 5 µM","in vitro [5]; Caco-2, pH 7.4",18.7 ×10⁻⁶ cm/s
CN(C)CCc1c[nH]c2cccc(OP(=O)(O)O)c12 [Psilocybin],RFU@10 μM,[1],257 RFU
same,K(i),[6],lower K(i) for both 5-HT2A and 5-HT2C receptors than LSD
same,drug discrimination,5-HT2A,"5-HT2A antagonists, but not 5-HT1A antagonists, prevented rats from recognizing psilocybin"
same,oscillatory power,[7],decreases in oscillatory power in areas of the brain's default mode network
same,absolute metabolic rate of glucose,frontal cortex,"increased absolute metabolic rate of glucose in frontal, and to a lesser extent in other, cortical regions as well as in striatal and limbic subcortical structures"
same,relief of depression and anxiety,[8],unprecedented positive relief of anxiety and depression; also recorded: significant and sustained anti-depressant and anxiolytic effects
same,adverse effect,[9],"transient, delayed headache"
